This is an account of results in patent US20060258598A1, “Alpha-keto carbonyl calpain inhibitors” (priority 2003, published 2006).

pEC50, pIC50: −log10 of the molar value.

For test [1], the system named is Primary fibroblasts from donors with Friedreich Ataxia (FRDA). The experiment in a line: BSO assay (cell viability under BSO-induced oxidative stress). In kind it is cell-based, human. To be noted: 24 h preincubation, 1 mM BSO; for pEC50: Homo sapiens, Fibroblast. The protocol: Primary fibroblasts were derived from donors with molecular diagnosis for Friedreich Ataxia (FRDA) and control donors with no mitochondrial disease. Cell lines were obtained from Coriell Cell Repositories (Camden, N.J.; catalog numbers GM04078, GM08402 and GM08399 respectively). All cell types were diagnosed on the molecular level for intronic […] triplet repeat length of at least 400-450 repeats using a PCR-based method. Experiments were carried out as described in the literature (M. L. Jauslin et al., Human Mol. Genet., 2002, 11, 3055-3063): Cells were seeded in microtiter plates at a density of 4'000 cells per 100 μl in growth medium consisting of 25% (v/v) M199 EBS and 64% (v/v) MEM EBS without phenol red (Bioconcept, Allschwil, Switzerland) supplemented with 10% (v/v) fetal calf serum (PAA Laboratories, Linz, Austria), 100 U/ml penicillin, 100 μg/ml streptomycin (PAA Laboratories, Linz, Austria), 10 μg/ml insulin (Sigma, Buchs, Switzerland), 10 ng/ml EGF (Sigma, Buchs, Switzerland), 10 ng/ml bFGF (PreproTech, Rocky Hill, N.J.) and 2 mM glutamine (Sigma, Buchs, Switzerland). The cells were incubated in the presence of various test compounds for 24 h before addition of L-buthionine-(S,R)-sulfoximine (BSO) to a final concentration of 1 mM. Cell viability was measured after the first signs of toxicity appeared in the BSO-treated controls (typically after 16 to 48 h). The cells were stained for 60 min at room temperature in PBS with 1.2 μM calcein AM and 4 μM ethidium homodimer (Live/Dead assay, Molecular Probes, Eugene, Oreg.). Fluorescence intensity was measured with a Gemini Spectramax XS spectrofluorimeter (Molecular Devices, Sunnyvale, Calif.) using excitation and emission wavelengths of 485 nm and 525 nm respectively.

Test [2] concerns cellular calpains in C2C12 myoblasts. The experiment in a line: Calpain inhibition assay in C2C12 myoblasts. In kind it is cell-based. The conditions noted are these: 2 h incubation, calcium ionophore Br-A-23187, read-out: Calp I IC50 Myoblast. The protocol: Calpain Inhibition Assay in C2C12 Myoblasts
This assay is aimed at monitoring the ability of the substance to inhibit cellular calpains. C2C12 myoblasts are grown in 96-well plates in growth medium (DMEM, 20% foetal calf serum) until they reach confluency. The growth medium is then replaced by fusion medium (DMEM, 5% horse serum). 24 hours later the fusion medium is replaced by fusion medium containing the test substances dissolved in 1 μl DMSO. After 2 hours of incubation at 37° C. the cells are loaded with the calpain fluorogenic substrate Suc-Leu-Tyr-AMC at 400 μM in 50 μl of a reaction buffer containing 135 mM NaCl; 5 mM KCl; 4 mM CaCl2; 1 mM MgCl2; 10 mM Glucose; 10 mM HEPES pH 7.25 for 20 min at room temperature. The calcium influx, necessary to activate the cellular calpains, is evoked by the addition of 50 μl reaction buffer containing 20 μM of the calcium ionophore Br-A-23187 (Molecular Probes). The fluorescence of the cleavage product AMC is measured as described above during 60 min at 37° C. at intervals of 1 min. The IC50 values are determined as described above. Comparison of the IC50 determined in the enzymatic calpain inhibition assay to the IC50 determined in the C2C12 myoblasts calpain inhibiton assay, allows to evaluate the cellular uptake or the membrane permeability of the substance.

A further test has as its target T1, human μ-calpain (Homo sapiens, UniProt P07384).
T1 construct: purchased Calbiochem
T1 sequence (P07384 1-714): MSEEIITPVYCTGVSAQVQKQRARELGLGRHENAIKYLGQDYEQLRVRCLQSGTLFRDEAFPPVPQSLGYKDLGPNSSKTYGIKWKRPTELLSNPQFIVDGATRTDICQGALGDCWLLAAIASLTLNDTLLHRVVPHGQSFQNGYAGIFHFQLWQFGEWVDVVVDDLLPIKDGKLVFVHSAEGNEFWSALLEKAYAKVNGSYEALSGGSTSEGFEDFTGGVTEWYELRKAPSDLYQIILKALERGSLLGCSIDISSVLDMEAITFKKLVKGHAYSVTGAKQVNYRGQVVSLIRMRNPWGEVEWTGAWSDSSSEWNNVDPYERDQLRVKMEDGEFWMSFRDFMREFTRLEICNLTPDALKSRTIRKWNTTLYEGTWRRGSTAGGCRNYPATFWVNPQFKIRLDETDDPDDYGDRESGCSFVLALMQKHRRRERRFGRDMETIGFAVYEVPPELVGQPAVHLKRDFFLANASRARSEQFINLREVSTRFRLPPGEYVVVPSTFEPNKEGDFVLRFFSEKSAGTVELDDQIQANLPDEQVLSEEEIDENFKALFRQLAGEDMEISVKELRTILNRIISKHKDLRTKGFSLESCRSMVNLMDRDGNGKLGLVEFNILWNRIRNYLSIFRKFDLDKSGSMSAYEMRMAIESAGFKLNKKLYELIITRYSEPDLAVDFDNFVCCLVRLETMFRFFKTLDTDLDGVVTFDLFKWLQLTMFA
T1 sequence (P04632 1-268 partner): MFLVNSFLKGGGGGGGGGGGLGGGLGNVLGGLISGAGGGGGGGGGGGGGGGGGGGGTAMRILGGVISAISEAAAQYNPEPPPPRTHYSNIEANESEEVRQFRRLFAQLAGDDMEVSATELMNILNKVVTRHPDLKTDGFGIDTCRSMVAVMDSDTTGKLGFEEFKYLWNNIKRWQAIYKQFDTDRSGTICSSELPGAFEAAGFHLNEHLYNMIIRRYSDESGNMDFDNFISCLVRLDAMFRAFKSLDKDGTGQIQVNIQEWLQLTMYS
The experiment in a line: Enzymatic calpain inhibition assay. Type of test: biochemical. The conditions noted are these: substrate Suc-Leu-Tyr-AMC, read-out: Calp I IC50. On the procedure:
The Ki value was also determined in some cases. These criteria were used to measure the inhibitory effect of the compounds (I) on calpain I, calpain II and cathepsin B.
Enzymatic Calpain Inhibition Assay
The inhibitory properties of calpain inhibitors are tested in 100 μl of a buffer containing 100 mM imidazole pH 7.5, 5 mM L-Cystein-HCl, 5 mM CaCl2, 250 μM of the calpain fluorogenic substrate Suc-Leu-Tyr-AMC (Sigma) (Sasaki et al., J. Biol. Chem., 1984, 259, 12489-12949) dissolved in 2.5 μl DMSO and 0.5 μg of human μ-calpain (Calbiochem). The inhibitors dissolved in 1 μl DMSO are added to the reaction buffer. The fluorescence of the cleavage product 7-amino-4-methylcoumarin (AMC) is followed in a SPECTRAmax GEMINI XS (Molecular Device) fluorimeter at λex=360 nm and λem=440 nm at 30° C. during 30 min at intervals of 30 sec in 96-well plates (Greiner). The initial reaction velocity at different inhibitor concentrations is plotted against the inhibitor concentration and the IC50 values determined graphically.

For the molecule `CCNC(=O)C(=O)[C@H](Cc1ccc(Cl)cc1)NC(=O)[C@@H](NC(=O)CCCCC1CCS[S+]1[O-])C(C)C` (stereo partly shown) [Example 2], in test [1], the pEC50 is 5.70. The pIC50 was 5.22 in test [2] and 7.10 on human μ-calpain.

For the molecule `CCNC(=O)C(=O)[C@H](Cc1ccc(Cl)cc1)NC(=O)[C@@H](NC(=O)CCCC1CCCS1)C(C)C` (stereo partly shown) [Example 5], the pEC50 in test [1] is 5.70. Also, the pIC50 in test [2] is 5.70; at human μ-calpain it was 6.92.

For `CCNC(=O)C(=O)[C@H](Cc1ccc(Cl)cc1)NC(=O)[C@@H](NC(=O)CCC1CCCS1)C(C)C` (stereo partly shown) [Example 6], the pIC50 was 5.49 in test [2] and 6.96 at human μ-calpain.

Regarding `Cc1ccc(S(=O)(=O)CNC(=O)C(=O)[C@H](Cc2ccc(Cl)cc2)NC(=O)[C@@H](NC(=O)CCCCC2CCSS2)C(C)C)cc1` (stereo partly shown) [Example 13], the pEC50 in test [1] is 6.00. For the same molecule, the pIC50 is 6.30 in test [2] and 6.70 at human μ-calpain.

With `Cc1ccc(S(=O)(=O)CNC(=O)C(=O)[C@H](Cc2ccc(Cl)cc2)NC(=O)[C@@H](NC(=O)CCCCC2CCS[S+]2[O-])C(C)C)cc1` (stereo partly shown) [Example 14], the results for the negative logarithm of the IC50 (pIC50) (in test [2]; on human μ-calpain) were 5.92 and 6.70, respectively.

As to `CCNC(=O)C(=O)[C@H](Cc1ccc(Cl)cc1)NC(=O)[C@H](CC(C)C)NC(=O)CCCCC1CCSS1` (stereo partly shown) [Example 15], the pEC50 in test [1] was 5.40. Moreover, the pIC50 was 5.60 in test [2] and 7.66 on human μ-calpain.

In test [1], `CCNC(=O)C(=O)[C@H](Cc1ccc(Cl)cc1)NC(=O)[C@H](CC(C)C)NC(=O)CCCCC1CCS[S+]1[O-]` (stereo partly shown) [Example 16] showed a pEC50 of 5.40. Besides, the pIC50 in test [2] was 5.70; at human μ-calpain, 7.30.

As to `Cc1ccc(S(=O)(=O)CNC(=O)C(=O)[C@H](Cc2ccc(Cl)cc2)NC(=O)[C@H](CC(C)C)NC(=O)CCCCC2CCSS2)cc1` (stereo partly shown) [Example 25], in test [1], the pEC50 is 5.70. The figures for the pIC50 (in test [2]; at human μ-calpain) were 5.82 and 6.92, respectively.

In the case of `Cc1ccc(S(=O)(=O)CNC(=O)C(=O)[C@H](Cc2ccc(Cl)cc2)NC(=O)[C@H](CC(C)C)NC(=O)CCCCC2CCS[S+]2[O-])cc1` (stereo partly shown) [Example 26], the negative-log EC50 (pEC50) in test [1] was 5.40. Besides, the pIC50 in test [2] was 5.70; on human μ-calpain, 6.92.

As for `CCNC(=O)C(=O)[C@H](Cc1ccc(Cl)cc1)NC(=O)[C@H](CC(C)(C)C)NC(=O)CCCCC1CCSS1` (stereo partly shown) [Example 27], the “BSO EC50” value in test [1] was “inactive”. Moreover, the pIC50 in test [2] was 5.46; at human μ-calpain it was 7.00.

Regarding `CCNC(=O)C(=O)[C@H](Cc1ccc(Cl)c(Cl)c1)NC(=O)[C@@H](NC(=O)CCCCC1CCSS1)C(C)C` (stereo partly shown) [Example 29], the pIC50 in test [2] was 5.00; on human μ-calpain, 7.07.

With `CCNC(=O)C(=O)[C@H](Cc1ccc(Cl)cc1Cl)NC(=O)[C@@H](NC(=O)CCCCC1CCS[S+]1[O-])C(C)C` (stereo partly shown) [Example 34], the pIC50 was 4.70 in test [2] and 6.30 at human μ-calpain.

Take `CCNC(=O)C(=O)[C@H](Cc1ccc(F)c(F)c1)NC(=O)[C@@H](NC(=O)CCCCC1CCSS1)C(C)C` (stereo partly shown) [Example 41]: the values for the pIC50 (in test [2]; on human μ-calpain) were 6.15 and 7.00, respectively.

With `CCNC(=O)C(=O)[C@H](Cc1ccc(I)cc1)NC(=O)[C@H](CC(C)C)NC(=O)CCCCC1CCS[S+]1[O-]` (stereo partly shown) [Example 79], the pIC50 is 6.30 in test [2] and 7.82 on human μ-calpain.

Take `COc1ccc(C[C@H](NC(=O)[C@@H](NC(=O)CCCCC2CCS[S+]2[O-])C(C)C)C(=O)C(=O)O)cc1` (stereo partly shown) [Example 89]: the pIC50 is 5.40 in test [2] and 7.22 on human μ-calpain.

Consider `CCNC(=O)C(=O)[C@H](Cc1ccc(C(C)(C)C)cc1)NC(=O)[C@@H](NC(=O)CCCCC1CCSS1)C(C)C` (stereo partly shown) [Example 118], for which the negative logarithm of the IC50 (pIC50) is 5.74 in test [2] and 6.40 at human μ-calpain.

For `CCNC(=O)C(=O)[C@H](Cc1ccc(C(C)(C)C)cc1)NC(=O)[C@H](CC(C)C)NC(=O)CCCCC1CCSS1` (stereo partly shown) [Example 120], the pIC50 is 6.07 in test [2] and 7.02 on human μ-calpain.

Turning to `CCNC(=O)C(=O)[C@H](Cc1ccc(C(F)(F)F)cc1)NC(=O)[C@H](CC(C)C)NC(=O)CCCCC1CCS[S+]1[O-]` (stereo partly shown) [Example 125], the results for the pIC50 (in test [2]; on human μ-calpain) were 6.10 and 7.40, respectively.

Regarding `CCNC(=O)C(=O)[C@H](CC1CCCCC1)NC(=O)[C@@H](NC(=O)CCCCC1CCSS1)C(C)C` (stereo partly shown) [Example 149], the results for the pIC50 (in test [2]; on human μ-calpain) were 5.52 and 6.60, respectively.

Turning to `CCNC(=O)C(=O)[C@@H](NC(=O)[C@@H](NC(=O)CCCCC1CCS[S+]1[O-])C(C)C)c1ccccc1` (stereo partly shown) [Example 154], on human μ-calpain, the pIC50 is 6.12.

As for `CCNC(=O)C(=O)[C@H](CC(C)C)NC(=O)[C@@H](NC(=O)CCCCC1CCSS1)C(C)C` (stereo partly shown) [Example 157], the pIC50 in test [2] was 6.60; on human μ-calpain, 6.30.

For `CCNC(=O)C(=O)[C@H](Cc1ccc(Cl)cc1)NC(=O)[C@@H](NC(=O)CNC(=O)CCCCC1CCSS1)C(C)C` (stereo partly shown) [Example 169], the pIC50 in test [2] is 6.00; at human μ-calpain, 7.60.

`CCNC(=O)C(=O)[C@H](Cc1ccc(Cl)cc1)NC(=O)[C@@H](NC(=O)CNC(=O)CCCCC1CCS[S+]1[O-])C(C)C` (stereo partly shown) [Example 170]: the pIC50 was 5.40 in test [2] and 6.82 at human μ-calpain.

Take `CCNC(=O)C(=O)[C@H](Cc1ccc(Cl)cc1)NC(=O)[C@@H](NC(=O)CNC(=O)CCCCC1SC[C@@H]2NC(=O)N[C@H]12)C(C)C` (stereo partly shown) [Example 212]: the pIC50 in test [2] is 5.46; on human μ-calpain, 6.82.

Broadly, the pEC50 is −log10 of the EC50, conventionally taken in molar units. Low values mean a high EC50, high ones a low EC50. As usually defined, the pIC50 is the IC50 on a negative log10 scale, so that one unit is a factor of ten.
